System: mushroom-derived tyrosinase
Assay: Tyrosinase activity inhibition (dopachrome formation from L-dopa, absorbance at 490 nm)
Type: biochemical
Conditions: for Inhibitory Rate (%): 37° C., 30 minutes; for tyrosinase inhibitory activity compared with comparative drugs: comparison in words
Protocol: As test substances, the composition prepared in Example 1 and four types of anthocyanin crystal prepared in Example 2 were used. To a 96-well plate, 40 μl of mushroom-derived tyrosinase (125 unit/ml; dissolved in a 67 mmol/l phosphate buffer solution; […] Sigma), and 40 μl of an inhibitor solution were added. The plate was allowed to stand for 37° C. for 30 minutes. Then, the amount of dopachrome produced was determined by absorbance at 490 nm. Tyrosinase inhibitory activity was expressed as an inhibitory rate obtained by the following equation: Inhibitory Rate (%)=[([…]: absorbance at 490 nm of a control solution • B: absorbance at 490 nm of a control solution (blank solution) • C: absorbance at 490 nm of an anthocyanin solution • D: absorbance at 490 nm of an anthocyanin solution (blank solution).

Structure (SMILES)	Inhibitory Rate (%) (inhibitor concentration 10 mM (2.7 mg/ml))	tyrosinase inhibitory activity compared with comparative drugs	Inhibitory Rate (%) (inhibitor concentration 0.2 mM)
OC[C@H]1O[C@@H](Oc2ccc(O)cc2)[C@H](O)[C@@H](O)[C@@H]1O [Arbutin, reference compound]	10.4%		
OC[C@H]1O[C@@H](Oc2cc3c(O)cc(O)cc3[o+]c2-c2ccc(O)c(O)c2)[C@H](O)[C@@H](O)[C@@H]1O [C3G (Example 2), cyanidin-3-glucoside]		tyrosinase inhibitory activity at the same level as that found in comparative drugs such as kojic acid, arbutin	45.0%
OC[C@H]1O[C@@H](Oc2cc3c(O)cc(O)cc3[o+]c2-c2cc(O)c(O)c(O)c2)[C@H](O)[C@@H](O)[C@@H]1O [D3G (Example 2), delphinidin-3-glucoside]		tyrosinase inhibitory activity at the same level as that found in comparative drugs such as kojic acid, arbutin	67.5%
CC1O[C@@H](OC[C@H]2OC(Oc3cc4c(O)cc(O)cc4[o+]c3-c3cc(O)c(O)c(O)c3)[C@H](O)C(O)C2O)C(O)C(O)[C@H]1O (stereo partly shown) [D3R (Example 2), delphinidin-3-rutinoside]		tyrosinase inhibitory activity at the same level as that found in comparative drugs such as kojic acid, arbutin	70.1%
N[C@@H](CCC(=O)N[C@@H](CS)C(=O)NCC(=O)O)C(=O)O [Glutathione, reference compound]			13.2%
O=c1cc(CO)occ1O [Kojic Acid, reference compound]			34.7%
N[C@@H](CS)C(=O)O [L-Cysteine, reference compound]			29.8%
